The values below are quoted from earlier work in patent US20060078955A1, “Method for retrieving delta9-THC from oral fluid” (Lin-Zhi International, priority 2004, published 2006).

As to “sulfobutyl-ether-β-cyclodextrin [Captisol]”, the intrinsic aqueous solubility (hepta-substituted preparation) is on record as more than 50 % w/v.
Consider `CCCCCc1cc(O)c2c(c1)OC(C)(C)[C@@H]1CCC(C)=C[C@@H]21` [Δ^9-THC, Δ^9-tetrahydrocannabinol], for which the aqueous solubility (Jarho et al.) is 1 to 2 µg/mL.
